system: TNFα-Freisetzung; assay: Inhibition of TNFα release after LPS stimulation of human whole blood (ELISA); assay type: cell-based; settings: Homo sapiens, 24 h; bei 10nM; read-out: TNFα-Freisetzung hemmen
Description: Methodenbeschreibung der Hemmung der TNFα Freisetzung nach LPS Stimulation von humanem Vollblut
Die Stimulierung isolierter Leukozyten für die Freisetzung von Zytokinen kann auf verschiedenen Wegen erfolgen. Lipopolysaccharide (LPS) stellen einen Stimulus für die Untersuchung der Freisetzung von TNFα dar. LPS ist Bestandteil bakterieller Zellwände und wird beim Abtöten der Bakterien (durch Antibiotika oder das natürliche Immunsystem) freigesetzt. LPS stimuliert insbesondere die Aktivität phagozytierender Leukozyten (Gewebsmakrophagen, Granulozyten, Monozyten) und verursacht die Infiltration von Leukozyten vom peripheren Blut in das betroffene Gewebe. Ein Zytokin von besonderer Bedeutung für diese Mechanismen ist TNFα, das in großen Mengen durch die betroffenen Zellen sezerniert wird. Hauptquelle dabei sind Monozyten und Makrophagen. TNFα initiiert und prolongiert den Entzündungsprozess im Zusammenspiel mit anderen Mediatoren.
Für die Untersuchung des Effektes auf die LPS-induzierte TNFα-Freisetzung wurde eine Methode verwendet, die von MARX et al. (Marx D, Tassabehji M, Heer S, Hüttenbrink KB, Szelenyi I (2002) Pulmonary Pharmacology & Therapeutics 15 7-15) beschrieben wurde. Die Methode in Kürze: Humanes Blut wurde von verschiedenen Spendern entnommen, durch Zusatz von 10 mM Na-Citrat ungerinnbar gemacht und 1:5 mit RPMI 1640 Zellkulturmedium verdünnt. Die Testsubstanzen wurden den Blutproben in verschiedenen Konzentrationen zugefügt. 15 Minuten später wurden die Leukozyten durch Zusatz von Lipopolysacchariden (LPS) aus Salmonella abortus equi in einer Endkonzentration von 1µg/ml stimuliert. Nach Inkubation der Testansätze für 24 Stunden bei 37°C. und unter 5% CO2 in wassergesättigter Luft, wurde das Blut zentrifugiert und die Konzentration an TNFα im zellfreien Überstand unter Verwendung eines käuflichen ELISA (BD Biosciences) nach Angaben des Herstellers exakt vermessen.

SMILES	inhibition at 0.01 µM
CCc1nc2c(sc3nc(-c4ccccc4)cc(C)c32)c(=O)[nH]1 [2-Ethyl-9-methyl-7-phenyl-pyrido[3',2':4,5]thieno[3,2-d]pyrimidin-4-on]	> 20%
Cc1cc(C)c2c(n1)sc1c(=O)[nH]c(=O)[nH]c12 [7,9-Dimethyl-pyrido[3',2':4,5]thieno[3,2-d]pyrimidin-2,4-dion]	> 20%
COc1ccc(-c2cc(C)c3c(n2)sc2c(=O)[nH]c(=O)[nH]c23)cc1OC [7-(3,4-Dimethoxyphenyl)-9-methyl-pyrido[3',2':4,5]thieno[3,2-d]pyrimidin-2,4-dion]	> 20%
COc1ccc(-c2cc(C)c3c(n2)sc2c(=O)[nH]c(=O)[nH]c23)cc1 [7-(4-Methoxyphenyl)-9-methyl-pyrido[3',2':4,5]thieno[3,2-d]pyrimidin-2,4-dion]	> 20%
CCCc1nc2c(sc3nc(-c4ccccc4)cc(-c4cccnc4)c32)c(=O)[nH]1 [7-Phenyl-2-n-propyl-9-(pyrid-3-yl)-pyrido[3',2':4,5]thieno[3,2-d]pyrimidin-4(3H)-on]	> 20%
Cc1cc(-c2ccccc2)nc2sc3c(=O)[nH]c(=O)[nH]c3c12 [9-Methyl-7-phenyl-pyrido[3',2':4,5]thieno[3,2-d]pyrimidin-2,4-dion]	> 20%

same assay, conditions: Homo sapiens, 24 h; bei 100nM; read-out: TNFα-Freisetzung hemmen

SMILES	inhibition at 0.1 µM
O=c1[nH]c(=O)c2sc3nc(-c4ccccc4)cc(-c4ccccc4)c3c2[nH]1 [7,9-Diphenyl-pyrido[3',2':4,5]thieno[3,2-d]pyrimidin-2,4-dion]	> 10%
CSc1nc2c(sc3nc(-c4ccccc4)cc(C)c32)c(=O)[nH]1 [9-Methyl-2-methylthio-7-phenyl-pyrido[3',2':4,5]thieno[3,2-d]pyrimidin-4(3H)-on]	> 10%
Cc1c(-c2ccc([N+](=O)[O-])cc2)c(-c2ccccc2)nc2sc3c(=O)[nH]c(=O)[nH]c3c12 [9-Methyl-8-(4-nitrophenyl)-7-phenyl-pyrido[3',2':4,5]thieno[3,2-d]pyrimidin-2,4(1H,3H)-dion]	> 10%

same assay, conditions: bei 10nM

SMILES	TNFα-Freisetzung hemmen
Cc1cc(-c2ccc(F)cc2)nc2sc3c(=O)[nH]c(=O)[nH]c3c12 [7-(4-Fluorphenyl)-9-methyl-pyrido[3',2':4,5]thieno[3,2-d]pyrimidin-2,4-dion]	> 20%
O=C(O)c1nc2c(sc3nc(-c4ccccc4)ccc32)c(=O)[nH]1 [7-Phenyl-pyrido[3',2':4,5]thieno[3,2-d]pyrimidin-4(3H)-on-2-carbonsäure]	> 20%

same assay, conditions: bei 100nM

SMILES	TNFα-Freisetzung hemmen
Cc1nc2c(sc3nc(-c4ccc(Br)cc4)cc(C)c32)c(=O)[nH]1 [7-(4-Brom-phenyl)-2,9-dimethyl pyrido[3',2':4,5]thieno[3,2-d]pyrimidin-4(3H)-on]	> 10%
CCOC(=O)c1nc2c(sc3nc(-c4ccccc4)ccc32)c(=O)[nH]1 [7-Phenyl-pyrido[3',2':4,5]thieno[3,2-d]pyrimidin-4(3H)-on-2-carbonsäureethylester]	> 10%

— patent EP1619197A1, “Substituted Pyrido[3',2':4,5]thieno[3,2-d]pyrimidin-2,4(1H,3H)diones and -4(3H)ones as well as Pyrido[3',2':4,5]furo[3,2-d]-pyrimidin-2,4(1H,3H)diones und -4(3H)ones as inhibitors of TNF-alpha release” (Curacyte Discovery GmbH, priority 2004, dated 2006)
